On the set-up of series [1]: method as in PMID 30724197. The following applies: cited from earlier work.
The conditions of series [2]: source not given; cited from earlier work.
A short description of series [3]: Dispersibility in water: particle size distribution over time (Malvern Mastersizer 2000). In kind it is physicochemical. The following applies: for Particle size after treatment in the absence of trehalose: polyphenol precipitate without protein and without trehalose; for Dispersibility of untreated polyphenol: untreated powder, phosphate buffer pH 7.0, over 60 min; for Particle size reached over time, WPI co-precipitates: over 60 min; for Size of additional significant particle population after treatment: distribution at least bi-modal. The method, then: The particle size distribution of untreated (control) polyphenols vs. the polyphenols co-precipitated with NaCas, SPI, and WPI after dispersion in phosphate buffer (pH 7.0) is presented in Figure 4. As stated in Section 3.6, in the case of the current research, we measured dispersibility based on the decrease in the size of particles dispersed in the aqueous medium over time.
The dispersibility of the lyophilized powders and the untreated samples was measured according to the method from Ji et al.. For this purpose, we used a Malvern Mastersizer 2000 (Malvern Instruments Ltd., Worcestershire, UK), which was equipped with a 4 mW He–Ne laser operating apparatus. To start with, about 30 mg of each powder was added to the dispersion unit containing phosphate buffer (10 mM NaH2PO4, pH 7.0), and this mixture was stirred (2000 rpm) for 60 min. The particle size distribution obscuration values of each sample were read at 2 min intervals and a wavelength of 632.8 nm. To avoid artifacts (large lumps) from the initial dispersion, the Time 0 min measurement was removed, and the data from 2 to 60 min were collected. A separate normalization was applied to the obscuration indices across the dispersion period for each sample by dividing each index by the maximum index. Finally, the volume distribution data were multiplied by the normalized obscuration index at each time point.

A short description of series [4]: Solubility of the powders in water (phosphate buffer), HPLC quantification. In kind it is physicochemical. Conditions: for solubility at 24 h: aqueous buffer, thermodynamic from solid; for Increase in solubility of co-precipitate compared to intrinsic (untreated) solubility: polyphenol co-precipitated with protein and trehalose vs untreated, phosphate buffer pH 7.0. As to the method:
To measure the amount of the polyphenol entrapped inside the NaCas, SPI, and WPI precipitates (entrapment efficiency), the concentration of each polyphenol in the supernatants was determined by high-performance liquid chromatography (HPLC) following different methods (depending on the polyphenol). The HPLC instrument was equipped with a UV/visible diode array detector (Agilent Technologies, 1200 Series, Santa Clara, CA, USA). The column was a reverse-phase PrevailTM C18 with dimensions of 4.6 cm × 150 mm and 5 µm particle size (Grace Alltech, Columbia, MD, USA). The composition and conditions of the mobile phase varied based on the method used for the quantification of each polyphenol. […] The sample injection volume for all cases was 20 µL. Different polyphenols were detected at different wavelengths and different retention times; e.g., naringenin and rutin were detected at 10.15 and 4.8 min, respectively. For the calibration of the HPLC column and quantification of each polyphenol in the samples, standard solutions of various concentrations of pure polyphenols (94 to 98%) in the mobile phase were used. […] Thermo Scientific, Waltham, MA, USA) before injecting them into the HPLC column. […] The dispersibility of the lyophilized powders and the untreated samples was measured according to the method from Ji et al.. For this purpose, we used a Malvern Mastersizer 2000 (Malvern Instruments Ltd., Worcestershire, UK), which was equipped with a 4 mW He–Ne laser operating apparatus. […] To avoid artifacts (large lumps) from the initial dispersion, the Time 0 min measurement was removed, and the data from 2 to 60 min were collected. A separate normalization was applied to the obscuration indices across the dispersion period for each sample by dividing each index by the maximum index. Finally, the volume distribution data were multiplied by the normalized obscuration index at each time point.

The conditions of series [5]: reference compounds of Table 1; one cell merged over all four solubility columns; no source or measurement printed; cited from earlier work.
On the set-up of series [6]: method as in PMID 35056844. Conditions: rutin dissolved in solution maintained at pH 11.0 for 30 min; cited from earlier work.
Setting [7] is: untreated (commercial) polyphenol, phosphate buffer pH 7.0, 25 °C.
Setting [8] is: polyphenol precipitate without protein, absence of trehalose.

Here are results for seven compounds from PMC10147046, “Assessment of Various Food Proteins as Structural Materials for Delivery of Hydrophobic Polyphenols Using a Novel Co-Precipitation Method” (Molecules, 2023).

In brackets after ≈: the same amount, converted by molar mass.

Take `O=c1c(-c2ccc(O)cc2)coc2cc(O)ccc12` [daidzein]: the “Enhancement of daidzein solubility” value in series [1] (WPI nanoparticles formed in the presence of daidzein) is given as “at least 2 fold”. In addition, the Stability entry in series [1] (WPI-daidzein nanoparticles, 4 °C) is “stable at 4 °C for at least two months”.
One may read the solubility as how much of the substance goes into solution per volume. Take `COc1ccc([C@@H]2CC(=O)c3c(O)cc(O[C@@H]4O[C@H](CO[C@@H]5O[C@@H](C)[C@H](O)[C@@H](O)[C@H]5O)[C@@H](O)[C@H](O)[C@H]4O)cc3O2)cc1O` [Hesperidin]: the Solubility in ethanol in series [2] is around 1000 µg/mL (≈ 1640 µM). For the same compound, in series [3], the “Particle size after treatment in the absence of trehalose” value turned out to be 30 μm; the “Dispersibility of untreated polyphenol” value is “None of the untreated forms of rutin, naringenin, hesperidin, and curcumin (Figure 4) showed any significant dispersibility over 60 min”. Moreover, in series [3] (untreated powder dispersed in phosphate buffer), the “Particle size, untreated polyphenol” value was ~ 60 μm. The compound further had a solubility at 24 h in series [4] (setting [7]) of 2 µg/mL (≈ 3.28 µM).
Turning to `Oc1ccc(-c2ccc(O)cc2O)c(O)c1` [[1,1′-Biphenyl]-2,2′,4,4′-tetrol], in series [5], the “Solubility (reference compounds, in words)” value is given as “low?”.
For `O=C1C[C@@H](c2ccc(O)cc2)Oc2cc(O)cc(O)c21` [Naringenin, (S)-naringenin], the Solubility in ethanol in series [2] was around 1000 µg/mL (≈ 3670 µM). For the same compound, in series [3], the “Particle size reached over time, WPI co-precipitates” value is “less than 1 μm”; the “Particle size after treatment in the absence of trehalose” value is on record as ~ 6 μm; the “Dispersibility of untreated polyphenol” value was “None of the untreated forms of rutin, naringenin, hesperidin, and curcumin (Figure 4) showed any significant dispersibility over 60 min”. The compound also displayed a Size of additional significant particle population after treatment in series [3] (setting [8]) of around 0.1 µm. Also, the solubility at 24 h in series [4] (setting [7]) came out at 2 µg/mL (≈ 7.35 µM).
For Curcumin, the Solubility in ethanol in series [2] is around 10000 µg/mL. For the same compound, the “Size of minor particle population after treatment” value in series [3] (setting [8]) is ~ 160 μm. For the same compound, the “Dispersibility of untreated polyphenol” value in series [3] was “None of the untreated forms of rutin, naringenin, hesperidin, and curcumin (Figure 4) showed any significant dispersibility over 60 min”. Further, in series [4], the “Increase in solubility of co-precipitate compared to intrinsic (untreated) solubility” value is recorded as around 10 fold. Also, the “Solubility (Untreated)” value in series [4] (setting [7]) worked out at 8 µg/mL.
`Oc1cc(O)c2c(c1)O[C@H](c1ccc(O)c(O)c1)[C@@H](O)C2` [Catechin, (+)-catechin]: in series [2], the Solubility in ethanol was around 100000 µg/mL (≈ 345000 µM). Besides, in series [3] (setting [8]), the Size of additional significant particle population after treatment was around 0.1 µm. The “Dispersibility of untreated polyphenol” value in series [3] is given as “showed some dispersibility”. This compound gave a solubility at 24 h in series [4] (setting [7]) of 1.5 µg/mL (≈ 5.17 µM). The “Increase in solubility of co-precipitate compared to intrinsic (untreated) solubility” value in series [4] is around 10 fold.
For the compound `C[C@@H]1O[C@@H](OC[C@H]2O[C@@H](Oc3c(-c4ccc(O)c(O)c4)oc4cc(O)cc(O)c4c3=O)[C@H](O)[C@@H](O)[C@@H]2O)[C@H](O)[C@H](O)[C@H]1O` [Rutin], in series [6], the Degradation result was “approximately 10%”. Moreover, in series [2], the Solubility in ethanol entry is “about 4 mg/mL”. Besides, in series [3], the “Particle size reached over time, WPI co-precipitates” value was “less than 1 μm”; the “Dispersibility of untreated polyphenol” value was “None of the untreated forms of rutin, naringenin, hesperidin, and curcumin (Figure 4) showed any significant dispersibility over 60 min”. In series [3] (co-precipitate with NaCas, redistribution of particle size over time), the “Size of smaller particles favoured over time, NaCas co-precipitate” value came to 0.1 μm. The Size of additional significant particle population after treatment in series [3] (setting [8]) was around 0.1 µm. Further, in series [3] (treated polyphenol precipitates with or without trehalose), the “Effect of treatment (no protein) on dispersibility” value is given as “Treatment improved the dispersibility only of rutin”. The solubility at 24 h in series [4] (setting [7]) is 110 µg/mL (≈ 180 µM).
